pIC50: −log10 of the molar value.
Experiments:
[1] = Antiproliferative activity against human HN-6 cells assessed as cell growth inhibition incubated for 72 hrs by CCK-8 assay; type: functional, cell-based; settings: HN-6, 72 h
FaDu = assay: Antiproliferative activity against human FaDu cells assessed as cell growth inhibition incubated for 72 hrs by CCK-8 assay; type: functional, cell-based
Tubulin (Homo sapiens) = Tubulin (Homo sapiens) (UniProt P68371+Q9H4B7+P0DPH7+P68366+Q13509+Q71U36+P04350+Q3ZCM7+P07437+P68363+Q9BQE3+Q6PEY2+Q13885+Q9BVA1+Q9BUF5); assay: Inhibition of tubulin polymerization (unknown origin) at 20 micromol/L by fluorescence based analysis; type: protein-complex assay; settings: dose 20.0 µmol/L
CAL-27 = assay: Antiproliferative activity against human CAL-27 cells assessed as cell growth inhibition incubated for 72 hrs by CCK-8 assay; type: functional, cell-based; settings: CAL-27, 72 h
Tubulin = assay: Inhibition of tubulin polymerization (unknown origin) by fluorescence based analysis; type: protein-complex assay, Homo sapiens

SMILES | pIC50 [1] | pIC50 (FaDu; read-out: IC50) | inhibition (Tubulin (Homo sapiens)) | pIC50 (CAL-27) | pIC50 (Tubulin) | pIC50 (FaDu)
CCCCc1ccc2nc(NC(=O)NCCc3ccccc3)[nH]c2c1 | 6.37 | 6.11 | 38.7% | 6.30 |  | 
CCCCCc1ccc2nc(NC(=O)OC(C)C)[nH]c2c1 | 6.77 | 6.64 | 100% | 6.51 | 5.17 | 
CCCCc1ccc2nc(NC(=O)NC(C)(C)C)[nH]c2c1 | < 5.70 |  | 9.79% |  |  | 
CCCCc1ccc2nc(NC(=O)OCCCl)[nH]c2c1 | < 5.70 |  | 0% |  |  | 
C=CCNC(=O)Nc1nc2ccc(CCCC)cc2[nH]1 | 6.41 | 6.55 | 8.4% | 6.67 |  | 
CCCCc1ccc2nc(NC(=O)C3CCOCC3)[nH]c2c1 | 5.93 |  | 100% |  | 5.36 | 
CCCCc1ccc2nc(NC(=O)OC3CCCC3)[nH]c2c1 | 5.77 |  | 8.6% |  |  | 
COc1ccc(/C=C\c2cc(OC)c(OC)c(OC)c2)cc1O [COMBRETASTATIN A4] | 8.35 | 8.30 |  | 8.52 |  | 
CC(C)OC(=O)Nc1nc2cc(F)c(F)cc2[nH]1 | 5.86 |  | 12.6% |  |  | 
CCCCc1ccc2nc(NC(=O)OCc3ccccc3)[nH]c2c1 | < 5.70 |  | 10.5% |  |  | 
CCCCOC(=O)Nc1nc2ccc(CCCC)cc2[nH]1 | 6.60 |  | 44.1% |  |  | 
CCCCc1ccc2nc(NC(=O)NCCOC(=O)C(C)C)[nH]c2c1 | 5.80 |  | 0% |  |  | 
CCCCCCCOC(=O)Nc1nc2ccc(CCCC)cc2[nH]1 | < 5.70 |  | 0% |  |  | 
CCCCCCNC(=O)Nc1nc2ccc(CCCC)cc2[nH]1 | 5.85 |  | 12.5% |  |  | 
CCCCc1ccc2nc(NC(=O)NC(C)C)[nH]c2c1 | 6.07 |  | 9.65% |  |  | 
Cc1ccc2nc(NC(=O)OC(C)C)[nH]c2c1 | 6.23 |  | 71.6% |  | 5.20 | 
CCCCc1ccc2nc(NC(=O)Cc3ccccc3)[nH]c2c1 | < 5.70 |  | 4.9% |  |  | 

SMILES | pIC50 [1] | pIC50 (FaDu; read-out: IC50) | inhibition (Tubulin (Homo sapiens)) | pIC50 (CAL-27) | pIC50 (Tubulin) | pIC50 (FaDu)
CCCCc1ccc2nc(NC(=O)OCC(CC)CCCC)[nH]c2c1 (stereo not drawn) | < 5.70 |  | 9.96% |  |  | 
CCCCc1ccc2nc(NC(=O)c3ccco3)[nH]c2c1 | 6.46 |  | 57.7% |  | 4.79 | 
CCCCc1ccc2nc(NC(=O)OCC(C)C)[nH]c2c1 | 6.39 |  | 34.4% |  |  | 
CC(C)OC(=O)Nc1nc2ccc(C(F)(F)F)cc2[nH]1 | 6.00 |  | 4.37% |  |  | 
Cc1cc2nc(NC(=O)OC(C)C)[nH]c2cc1C | 6.87 |  | 89.4% |  | 5.29 | 
CCCCc1ccc2nc(NC(=O)OCCCCl)[nH]c2c1 | 6.34 |  | 36.4% |  |  | 
CC[C@]1(O)C[C@@H]2CN(CCc3c([nH]c4ccccc34)[C@@](C(=O)OC)(c3cc4c(cc3OC)N(C)[C@H]3[C@@](O)(C(=O)OC)[C@H](OC(C)=O)[C@]5(CC)C=CCN6CC[C@]43[C@@H]65)C2)C1 [VINBLASTINE] | 9.08 | 8.35 |  | 8.99 |  | 
COc1cc2c(c(OC)c1OC)-c1ccc(OC)c(=O)cc1[C@@H](NC(C)=O)CC2 [COLCHICINE] | 7.71 |  |  | 7.43 |  | 7.64
CCCCc1ccc2nc(NC(=O)NC3CCCC3)[nH]c2c1 | 6.13 |  | 32.3% |  |  | 
CC(C)OC(=O)Nc1nc2ccc(F)cc2[nH]1 | 5.83 |  | 0.85% |  |  | 
CCCCc1ccc2nc(NC(=O)NC3CCCCC3)[nH]c2c1 | 6.01 |  | 8.26% |  |  | 
CCCCc1ccc2nc(NC(=O)NCC)[nH]c2c1 | 6.73 |  | 0% |  |  | 
CCCCCCOC(=O)Nc1nc2ccc(CCCC)cc2[nH]1 | < 5.70 |  | 0% |  |  | 
CC(C)OC(=O)Nc1nc2ccc(C#N)cc2[nH]1 | < 5.70 |  | 3.43% |  |  | 
CCCCc1ccc2nc(NC(=O)OCCC)[nH]c2c1 | 6.60 | 6.55 | 88.8% | 6.60 | 5.27 | 
CCCCc1ccc2nc(NC(=O)NCCC)[nH]c2c1 | 6.26 |  | 2.99% |  |  | 
CCCCc1ccc2nc(NC(=O)OC(C)CC)[nH]c2c1 (stereo not drawn) | 7.13 | 6.81 | 99.7% | 6.77 | 5.79 | 

— ChEMBL document CHEMBL5113404, “Design, synthesis and biological evaluation of new parbendazole derivatives for the treatment of HNSCC” (Eur J Med Chem, 2022)
